Experimental data: the NIST ThermoML archive (doi:10.1016/j.tca.2012.04.032)
Numbers after ± are expanded uncertainties.

Test: not given
Conditions: Crystal; DTA

Triple point temperature | Structure (SMILES)
487.75 ± 0.7 K | c1ccc2cc3ccccc3cc2c1 [anthracene]
504.95 ± 0.7 K | c1ccc(-c2nc[nH]c2-c2ccccc2)cc1 [4,5-diphenylimidazole]
550.95 ± 0.7 K | c1ccc(-c2nc(-c3ccccc3)c(-c3ccccc3)[nH]2)cc1 [2,4,5-triphenyl-1H-imidazole]

Structure (SMILES) | Triple point temperature
c1ccc(-c2ncc[nH]2)cc1 [2-phenyl-1H-imidazole] | 419.95 ± 0.7 K

Test: Molar enthalpy of transition or fusion
Conditions: Crystal; DSC

Molar enthalpy of transition or fusion | Structure (SMILES)
6.1 ± 0.136 kcal/mol | c1ccc2cc3ccccc3cc2c1 [anthracene]
7.73 ± 0.17 kcal/mol | c1ccc(-c2nc[nH]c2-c2ccccc2)cc1 [4,5-diphenylimidazole]
8.92 ± 0.194 kcal/mol | c1ccc(-c2nc(-c3ccccc3)c(-c3ccccc3)[nH]2)cc1 [2,4,5-triphenyl-1H-imidazole]

Structure (SMILES) | Molar enthalpy of transition or fusion
c1ccc(-c2ncc[nH]2)cc1 [2-phenyl-1H-imidazole] | 4.26 ± 0.108 kcal/mol
